Where two headings read alike, the source gives them in different places.
Key:
Assay type in all cases: cell-based
[1] = tested on: MCF-10A (non-tumour breast epithelial cells); experiment: MTT cytotoxicity assay, MCF-10A; conditions: read-out: IC50 MCF-10A
Method: (§1) HTB-26), MCF-7 (hormone-dependent breast cancer, ATCC: HTB−22), A549 (lung cancer, ATCC: CCL-185) and A2780cis (cisplatin-resistant ovarian cancer), and the non-tumour cell lines: MCF-10A (breast epithelial cells, ATCC: CRL-10317) and MRC-5 (lung fibroblast, ATCC: […] All the cells were maintained at 37°C in a humidified incubator with a 5% CO2 atmosphere. […] Then, the cells were treated with the compounds, solubilized in DMSO, at different concentrations and the plates were incubated for 48 h. To solubilize cisplatin, dimethylformamide (DMF) was used. The percentage of DMSO and DMF used in the assay was 0.5%. Afterwards, 50 μl of MTT (0.5 mg ml^−1 in phosphate-buffered saline) was added to each well of the plate and the plates were incubated for 4 h at 37°C. Then, the culture medium was removed, and the water-insoluble formazan crystals formed were solubilized by the addition of 100 μl isopropanol. The absorbance was recorded at 540 nm using a microplate reader. The half maximal inhibitory concentration (IC50) values were obtained using the GRAPHPAD PRISM software.

[2] = tested on: MCF-7 (hormone-dependent breast cancer); experiment: MTT cytotoxicity assay, MCF-7; conditions: for IC50: read-out: IC50 MCF-7; for SI^2 = IC50 (MCF-10A)/IC50 (MCF-7): selectivity index; for IC50 fold lower than that of cisplatin: MCF-7 cells
Method: as §1

[3] = tested on: MDA-MB-231 (triple-negative breast cancer); experiment: MTT cytotoxicity assay, MDA-MB-231; conditions: for IC50: read-out: IC50 MDA-MB-231; for SI^1 = IC50 (MCF-10A)/IC50 (MDA-MB-231): selectivity index
Method: as §1

[4] = tested on: MRC-5 (non-tumour lung fibroblast); experiment: MTT cytotoxicity assay, MRC-5; conditions: read-out: IC50 MRC-5
Method: as §1

A549 (lung cancer) = experiment: MTT cytotoxicity assay, A549; conditions: for IC50: read-out: IC50 A549; for SI^4 = IC50 (MRC-5)/IC50 (A549): selectivity index, column head prints IS^4; for IC50 of cisplatin fold higher than IC50 of the complex: A549 cells
Method: as §1

[5] = tested on: A2780cis (cisplatin-resistant ovarian cancer); experiment: MTT cytotoxicity assay, A2780cis; conditions: for IC50: read-out: IC50 A2780cis; for SI^3 = IC50 (MRC-5)/IC50 (A2780cis): selectivity index, column head prints IS^3
Method: as §1

[6] = tested on: MDA-MB-231, MCF-7, A549, A2780cis, MRC-5 and MCF-10A cell lines; experiment: MTT cytotoxicity assay, all cell lines studied; conditions: tested concentrations (<100 µM)
Method: The MDA-MB-231, A549 and MRC5 cell lines were cultured in Dulbecco’s modified eagle medium (DMEM) containing 10% fetal bovine serum (FBS), penicillin (100 IU ml^−1), streptomycin (100 mg ml^−1) and L-glutamine (2 mM). The MCF-7 and A2780cis cells were grown in the Roswell Park Memorial Institute (RPMI) containing 10% FBS, penicillin (100 IU ml^−1), streptomycin (100 mg ml^−1) and L-glutamine (2 mM). The MCF-10A cells were grown in DMEM nutrient mixture F-12 (DMEM F-12) containing 5% fetal horse serum, epidermal growth factor (EGF) (20 ng ml^−1), hydrocortisone (0.5 µg ml^−1), insulin (0.01 mg ml^−1), 1% penicillin and 1% streptomycin. All the cells were maintained at 37°C in a humidified incubator with a 5% CO2 atmosphere.
The cytotoxic activities of the free ligands and complexes were analysed by MTT (3-[4,5-dimethylthiazol-2-yl]-2,5 diphenyl tetrazolium bromide) assay [32]. For that, cells were plated in 96-well plates (1.5 × 10^4 cells well^−1) and kept for 24 h in an incubator with 5% CO2 and 37°C for adherence. Then, the cells were treated with the compounds, solubilized in DMSO, at different concentrations and the plates were incubated for 48 h. […] The percentage of DMSO and DMF used in the assay was 0.5%. […] The absorbance was recorded at 540 nm using a microplate reader.

[7] = Homo sapiens, MCF-10A, MTT, 48 h incubation
[8] = Homo sapiens, MRC5, MTT, 48 h incubation
[9] = Homo sapiens, A549, MTT, 48 h incubation
[10] = Homo sapiens, MCF7, MTT, 48 h incubation
[11] = Homo sapiens, MDA-MB-231, MTT, 48 h incubation

Row | Compound | IC50 ([1]; MTT, 48 h incubation) | IC50 ([2]; MTT, 48 h incubation) | IC50 ([3]; MTT, 48 h incubation) | IC50 ([4]; MTT, 48 h incubation) | IC50 (A549 (lung cancer); MTT, 48 h incubation) | SI^2 = IC50 (MCF-10A)/IC50 (MCF-7) [2] | SI^1 = IC50 (MCF-10A)/IC50 (MDA-MB-231) [3] | IC50 ([5]; MTT, 48 h incubation) | SI^4 = IC50 (MRC-5)/IC50 (A549) (A549 (lung cancer)) | SI^3 = IC50 (MRC-5)/IC50 (A2780cis) [5] | also measured
1 | N.N.[Cl][Pt][Cl] [cisplatin, cis-diamminedichloridoplatinum(II)] | 29.4 µM | 14 µM | 10.2 µM | – | – | – | – | – | – | – | –
2 | COc1cc(C=CC(=O)C=C([O-])C=Cc2ccc(O)c(OC)c2)ccc1O.F[P-](F)(F)(F)(F)F.[Ru+2].c1ccc(-c2ccccn2)nc1.c1ccc(P(c2ccccc2)c2ccccc2)cc1.c1ccc(P(c2ccccc2)c2ccccc2)cc1 [Ru3, [Ru(cur)(PPh3)2(bipy)]PF6] | 6.41 µM | – | 6.8 µM | > 30 µM | > 30 µM | 0.45 | 0.94 | 0.82 µM | – | – | –
3 | CC(=O)CC(C)=O [acac, acetylacetonate] | – | – | – | – | – | – | – | – | – | – | IC50 [1, 7]: > 100 µM; IC50 [4, 8]: > 100 µM; IC50 (A549 (lung cancer); [9]): > 100 µM; cytotoxic activity (in words) [6]: did not exhibit activity; IC50 [2, 10]: > 100 µM; IC50 [3, 11]: > 100 µM; IC50 ([5]; A2780cis, MTT, 48 h incubation): > 100 µM
4 | COc1cc(/C=C/C(=O)CC(=O)/C=C/c2ccc(O)c(OC)c2)ccc1O [cur, curcumin] | – | – | – | – | – | 0.84 | 0.57 | – | 0.27 | 2.24 | IC50 [1, 7]: 16.9 µM; IC50 [4, 8]: 8.99 µM; IC50 (A549 (lung cancer); [9]): 33.3 µM; IC50 [2, 10]: 20 µM; IC50 [3, 11]: 29.7 µM; IC50 ([5]; A2780cis, MTT, 48 h incubation): 4.02 µM
5 | O=C(CC(=O)c1ccccc1)c1ccccc1 [dbm, dibenzoylmethane] | – | – | – | – | – | 4.34 | 0.85 | – | 0.41 | 0.15 | IC50 ([1]; Homo sapiens, MCF-10A, 48 h): 50.7 µM; IC50 ([4]; Homo sapiens, MRC5, 48 h): 9.54 µM; IC50 (A549 (lung cancer); Homo sapiens, A549, 48 h): 23.1 µM; IC50 ([2]; Homo sapiens, MCF7, 48 h): 11.7 µM; IC50 ([3]; Homo sapiens, MDA-MB-231, 48 h): 59.6 µM; IC50 ([5]; A2780cis, 48 h): 62.6 µM
6 | CC(=O)C=C(C)[O-].F[P-](F)(F)(F)(F)F.[Ru+2].c1ccc(-c2ccccn2)nc1.c1ccc(P(c2ccccc2)c2ccccc2)cc1.c1ccc(P(c2ccccc2)c2ccccc2)cc1 [Ru1, [Ru(acac)(PPh3)2(bipy)]PF6] | 1.7 µM | 1.86 µM | 2.09 ± 0.46 µM | 4.92 µM | 1.43 µM | 0.91 | 0.81 | 0.59 µM | 3.44 | 8.34 | IC50 of cisplatin fold higher than IC50 of the complex (A549 (lung cancer)): 8 fold; IC50 fold lower than that of cisplatin [2]: 7.5 fold
7 | F[P-](F)(F)(F)(F)F.O=C(C=C([O-])c1ccccc1)c1ccccc1.[Ru+2].c1ccc(-c2ccccn2)nc1.c1ccc(P(c2ccccc2)c2ccccc2)cc1.c1ccc(P(c2ccccc2)c2ccccc2)cc1 [Ru2, [Ru(dbm)(PPh3)2(bipy)]PF6] | 1.71 µM | 1.74 µM | 3.37 µM | 4.85 µM | 1.06 µM | 0.98 | 0.50 | 0.39 µM | 4.57 | 12.43 | IC50 of cisplatin fold higher than IC50 of the complex (A549 (lung cancer)): 11 fold; IC50 fold lower than that of cisplatin [2]: 8.0 fold

Reference: article PMC11289651, “Ruthenium(II) complexes of curcumin and β-diketone derivatives: effect of structural modifications on their cytotoxicity” (Royal Society Open Science, 2024)
